Experimental data taken from article PMC7883042 (Peptide Science (Hoboken, N.j.), 2021).

Biological target: SARS‐CoV‐2 RBD/ACE2 PPI in A549 cells overexpressing ACE2 (Severe acute respiratory syndrome coronavirus 2, UniProt P0DTC2)

## Ac-IEEQAKTFLDKFNHER8EDLFYQS5-NH2 (sidechain bridge or staple) [Peptide 8]
  entry of His‐tagged SARS‐CoV RBD into cells (immunofluorescence): show entry
